Results published in patent US8592621B2, “Precursor compounds of sweet taste receptor antagonists for the prevention or treatment of disease” (Symrise AG, priority 2009, dated 2013).
One block for each molecule: values may come before it.

Assays:
[1] = test system: sweet taste impression of sweet tasting substances; assay: Influence on the sensorial quality of sweet substances (expert panel rating of sweet taste impression); assay type: in vivo; settings: for Sweet taste impression (1-10) Sample (B): scale 1 [not sweet] to 10 [extremely sweet]; for Change in sweet taste impression [%]: sample B vs sample A
Source text: In order to quantify the influence of inventive compounds of formula (I) on the sensorial characteristics of various sweet tasting substances, in each case a sample (A) (sweet tasting substance) and a sample (B) (sweet tasting substance+compound of formula (I) or lactisole (as standard)) were sensorially assessed by a group of experts and rated according to their sweet taste impression on a scale of 1 [not sweet] to 10 [extremely sweet]. Then in each case from the average values of the assessments of samples (A) and (B) the change (in %) in the sweet taste impression was calculated.

T1R2/T1R3 receptors [2] = target: T1, T1R2/T1R3 receptors (Homo sapiens, UniProt Q7RTX0+Q8TE23); assay: Calcium mobilization (FLIPR) in HEK293TREX cells expressing human TAS1R2/TAS1R3; assay type: cell-based; settings: in the presence of naringin dihydrochalcone; FIG. 3
T1 construct: expressed in transfected cells; TAS1R2 from pCDNA5-FRT, TAS1R3 from pCDNA3-TO (tetracycline-induced), G15-Gi3 from pIRESpuro3
T1 sequence (Q8TE23 20-839): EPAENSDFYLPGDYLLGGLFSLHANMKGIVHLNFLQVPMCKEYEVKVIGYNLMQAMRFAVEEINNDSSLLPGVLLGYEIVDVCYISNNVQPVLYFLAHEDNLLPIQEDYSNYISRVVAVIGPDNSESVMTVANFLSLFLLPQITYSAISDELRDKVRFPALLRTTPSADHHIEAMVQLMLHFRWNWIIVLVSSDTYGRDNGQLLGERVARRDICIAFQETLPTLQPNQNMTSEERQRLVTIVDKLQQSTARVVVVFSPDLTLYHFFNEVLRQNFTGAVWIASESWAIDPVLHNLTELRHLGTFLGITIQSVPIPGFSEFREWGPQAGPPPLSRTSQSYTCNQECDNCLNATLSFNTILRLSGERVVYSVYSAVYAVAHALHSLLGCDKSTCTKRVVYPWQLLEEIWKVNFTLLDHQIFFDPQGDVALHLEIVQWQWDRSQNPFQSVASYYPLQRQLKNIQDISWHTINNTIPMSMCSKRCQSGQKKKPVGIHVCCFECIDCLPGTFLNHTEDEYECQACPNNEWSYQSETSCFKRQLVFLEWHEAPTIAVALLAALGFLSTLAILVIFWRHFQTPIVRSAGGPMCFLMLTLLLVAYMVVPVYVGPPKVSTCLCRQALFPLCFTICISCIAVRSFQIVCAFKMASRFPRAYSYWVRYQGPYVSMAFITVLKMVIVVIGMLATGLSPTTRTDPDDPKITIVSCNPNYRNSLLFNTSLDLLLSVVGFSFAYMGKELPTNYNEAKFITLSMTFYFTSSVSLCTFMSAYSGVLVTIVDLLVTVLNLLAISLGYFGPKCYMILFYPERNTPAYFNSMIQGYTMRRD
T1 sequence (Q7RTX0 21-852): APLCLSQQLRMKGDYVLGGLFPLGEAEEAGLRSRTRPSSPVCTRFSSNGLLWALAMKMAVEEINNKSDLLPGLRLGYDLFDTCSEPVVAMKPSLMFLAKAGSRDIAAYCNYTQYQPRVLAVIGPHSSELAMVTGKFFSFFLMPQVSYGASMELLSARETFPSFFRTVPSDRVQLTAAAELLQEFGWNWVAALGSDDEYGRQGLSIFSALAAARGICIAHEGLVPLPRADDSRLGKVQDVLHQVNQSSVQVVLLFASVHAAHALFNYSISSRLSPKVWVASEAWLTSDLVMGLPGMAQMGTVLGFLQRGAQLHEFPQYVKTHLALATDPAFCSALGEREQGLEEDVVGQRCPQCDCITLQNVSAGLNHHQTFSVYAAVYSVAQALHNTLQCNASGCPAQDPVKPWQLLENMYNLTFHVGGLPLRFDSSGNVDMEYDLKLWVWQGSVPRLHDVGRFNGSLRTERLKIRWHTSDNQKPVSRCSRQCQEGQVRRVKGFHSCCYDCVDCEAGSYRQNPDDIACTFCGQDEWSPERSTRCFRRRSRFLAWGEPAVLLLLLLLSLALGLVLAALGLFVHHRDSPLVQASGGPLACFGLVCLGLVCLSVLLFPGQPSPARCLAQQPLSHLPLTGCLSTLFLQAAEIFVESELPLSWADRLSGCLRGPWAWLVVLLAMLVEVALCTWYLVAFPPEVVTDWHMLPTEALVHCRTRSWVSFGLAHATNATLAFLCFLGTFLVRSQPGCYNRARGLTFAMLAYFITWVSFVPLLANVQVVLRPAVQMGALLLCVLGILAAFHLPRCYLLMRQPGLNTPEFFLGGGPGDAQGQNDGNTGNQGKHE

T1R2/T1R3 receptors [3] = target: T1, T1R2/T1R3 receptors; assay: Activating or inhibiting effect on T1R2/T1R3 receptors according to concentration (same process as application example 3); assay type: cell-based; settings: FIG. 4
Source text: A stable cell line (HEK293TREX) extracted from human embryonic renal cells was manufactured with the help of the plasmid pIRESpuro3, coding for the G protein chimeras G15-Gi3. A further plasmid (pCDNA5-FRT), coding for the human TAS1R2 sequence, was also used. In this way it was possible to integrate the gene in a defined chromosomal region. The human TAS1R3 subunit of the human sweet taste receptor was cloned in pCDNA3-TO. This allowed the induction of the target gene using tetracycline. The stable, transfixed cell line was cultivated in high glucose content DMEM without tetracycline. For the measurements the cells were sown and cultivated (37° C., 5% CO2) in polylysine-coated 96-well titrimetric places (black with transparent bases) until they achieved an 80% confluence. […] The calcium mobilization by receptor stimulation by the test substances was measured in an automated fluorometer (fluorometric imaging plate reader FLIPR, Molecular Devices, Sunnyvale, Calif.). The test substances were measured in a concentration of 1 mmol/l or 0.1 mmol/l in C1 solution. All data were determined in two independent experiments, which were each repeated three times. The calcium signals obtained were corrected for the proportion of the mock cells and (using the formula ΔF/F=(F−F0)/F0) normalized on the starting intensity of the fluorescence prior to addition of the test substances (F0).

[4] = test system: sweet taste intensity (in the oral cavity); assay: Taste tests by a sensory panel (sweet taste intensity in the oral cavity); assay type: in vivo; settings: tasting by sensory panel
Source text: From this it can be concluded that during the tasting of the compounds of formulas (1) to (4) in the oral cavity no lactisole was released.

[5] = Sucrose 5% + test substance 10 mg/l
[6] = Sucrose 5%, test substance 10 mg/l

SMILES: CCCCCCOC(=O)C(C)Oc1ccc(OC)cc1 (stereo not drawn) [Compound of formula (1), 2-(4-methoxyphenoxy)-propanoic acid hexyl ester]
Sweet taste impression (1-10) Sample (B) ([1]; Sucrose 5% + test substance 14 mg/l): 5.0 ± 1
Change in sweet taste impression [%] ([1]; Sucrose 5%, test substance 14 mg/l): −10%
Antagonistic effect (inhibition) on the sweet taste receptor (T1R2/T1R3 receptors [2]): do not themselves demonstrate any antagonistic effect

Dose-effect curve for aspartame or saccharose (T1R2/T1R3 receptors [3]; in the presence of the compound): not altered
SMILES: COc1ccc(OC(C)C(=O)OCC(COC(=O)C(C)Oc2ccc(OC)cc2)OC(=O)C(C)Oc2ccc(OC)cc2)cc1 (stereo not drawn) [Compound of formula (2), 2-(4-methoxyphenoxy)propanoic acid-2,3-bis-[2-(4-methoxyphenoxy)-propionyloxy]-propyl ester]
Antagonistic effect on the sweet taste receptor (T1R2/T1R3 receptors [3]; in the presence of aspartame or sucrose): does not demonstrate any antagonistic effect
Sweet taste impression (1-10) Sample (B) ([1]; Naringin dihydrochalcone 50 mg/l + test substance 10 mg/l): 5.6 ± 2.1
Change in sweet taste impression [%] ([1]; Naringin dihydrochalcone 50 mg/l, test substance 10 mg/l): 9%
Sweet taste impression (1-10) Sample (B) [1, 5]: 5.6 ± 1.5
Change in sweet taste impression [%] [1, 6]: 3%
Antagonistic effect (inhibition) on the sweet taste receptor (T1R2/T1R3 receptors [2]): do not themselves demonstrate any antagonistic effect

SMILES: CCCCOC(=O)C(C)Oc1ccc(OC)cc1 (stereo not drawn) [Compound of formula (4), 2-(4-methoxyphenoxy)propanoic acid butyl ester]
Sweet taste impression (1-10) Sample (B) ([1]; Sucrose 5% + test substance 16 mg/l): 5.6 ± 1.5
Change in sweet taste impression [%] ([1]; Sucrose 5%, test substance 16 mg/l): −5%

SMILES: COc1ccc(OC(C)C(=O)O)cc1 (stereo not drawn) [Lactisole, 2-(4-methoxyphenoxy)propanoic acid, reference compound]
Influence on the sweet taste intensity (in the oral cavity) [4]: clear reduction in the sweet taste intensity
Sweet taste impression (1-10) Sample (B) [1, 5]: 4.2 ± 1.4
Change in sweet taste impression [%] [1, 6]: −27%
